This passage reports IC50 results from ChEMBL document CHEMBL5344448, “Amide Alkaloids as Privileged Sources of Senomodulators for Therapeutic Purposes in Age-Related Diseases” (J Nat Prod, 2024).

One assay deals with WI-38. The experiment in a line: Induction of senescence in human WI-38 cells. Format: functional, cell-based.
Assay [1] is described as follows: Inhibition of rat liver microsome ACAT. Format: microsomes.

A word on the IC50: it is the midpoint of a concentration-inhibition curve. Higher therefore signals weaker potency in that assay. For `O=C(/C=C/C=C/CC/C=C/c1ccc2c(c1)OCO2)N1CCCCC1` [DEHYDROPIPERNOLINE], the IC50 in the assay on WI-38 came out at 2.1 µM; in assay [1], 90 µM.
Turning to `CC(C)CNC(=O)/C=C/C=C/CCCCCC/C=C/c1ccc2c(c1)OCO2` [GUINEENSINE], the IC50 came out at 8.9 µM in the assay with WI-38 and 3 µM in assay [1].
In the assay with WI-38, `CCCCC/C=C/C=C/C(=O)NCC(C)C` [PELLITORIN] had an IC50 of 0.67 µM.
As for `O=C(/C=C/C=C/c1ccc2c(c1)OCO2)N1CCCCC1` [PIPERINE], the midpoint of inhibition with WI-38, the IC50, lay at 8.8 µM.
The same measure, in the same setting: under `COc1cc(/C=C/C(=O)N2CCC=CC2=O)cc(OC)c1OC` [PIPLARTINE] stands 8 µM.
The same measure, in the same setting: under `CC(C)CNC(=O)/C=C/C=C/CCCC/C=C/c1ccc2c(c1)OCO2` [RETROFRACTAMIDE B] stands 2 µM.
